Experimental data from the supplement of paper PMC6045584.
± gives the standard deviation of the averaged measurements.

Tests used:
SAPACITABINE = compound: CCCCCCCCCCCCCCCC(=O)Nc1ccn([C@@H]2O[C@H](CO)[C@@H](O)[C@@H]2C#N)c(=O)n1 [SAPACITABINE]; assay: surviving fraction relative to DMSO-only wells; higher = less growth inhibition; details: exposure time: 5 days
Summary of the method: (§1)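 Viability was scored with CellTiter-Glo luminescence and normalised to the median of DMSO-only wells as surviving fraction. Beforehand, log-phase tumour cell lines were seeded at 250–500 cells per well in 384-well plates, allowed 24 hours, and exposed continuously for five days to inhibitors at 0.5, 1, 5, 10, 50, 100, 500 and 1000 nM. Only lines whose three screens gave replicate Pearson r >0.7 and median Z' >0.3 were kept.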

SNX-5422 = compound: CC1(C)CC(=O)c2c(C(F)(F)F)nn(-c3ccc(C(N)=O)c(N[C@H]4CC[C@H](OC(=O)CN)CC4)c3)c2C1 [SNX-5422]; assay: as above; details: exposure time: 5 days
Summary of the method: as §1

| Test System | surviving fraction (SAPACITABINE; 0.5 nM) | surviving fraction (SAPACITABINE; 1 nM) | surviving fraction (SAPACITABINE; 5 nM) | surviving fraction (SAPACITABINE; 10 nM) | surviving fraction (SAPACITABINE; 50 nM) | surviving fraction (SAPACITABINE; 100 nM) | surviving fraction (SAPACITABINE; 500 nM) | surviving fraction (SAPACITABINE; 1000 nM) | surviving fraction (SNX-5422; 0.5 nM) | surviving fraction (SNX-5422; 1 nM) | surviving fraction (SNX-5422; 5 nM) | surviving fraction (SNX-5422; 10 nM) | surviving fraction (SNX-5422; 50 nM) | surviving fraction (SNX-5422; 100 nM) | surviving fraction (SNX-5422; 500 nM) | surviving fraction (SNX-5422; 1000 nM) |
| --- | --- | --- | --- | --- | --- | --- | --- | --- | --- | --- | --- | --- | --- | --- | --- | --- |
| HCC202 BREAST | 0.86 ± 0.17 | 0.93 ± 0.091 | 1.04 ± 0.38 | 0.761 ± 0.21 | 1.08 ± 0.37 | 0.904 ± 0.0085 | 0.911 ± 0.15 | 0.851 ± 0.048 | 1.37 ± 0.51 | 0.842 ± 0.83 | 0.874 ± 0.71 | 1.11 ± 0.68 | 0.514 ± 0.12 | 0.534 ± 0.12 | 0.218 ± 0.053 | 0.186 ± 0.043 |
| T47D BREAST | 0.9004 ± 0.0044 | 0.871 ± 0.029 | 0.911 ± 0.078 | 0.825 ± 0.035 | 0.961 ± 0.06 | 0.918 ± 0.036 | 0.649 ± 0.0094 | 0.519 ± 0.039 | 1.08 ± 0.018 | 1.06 ± 0.018 | 1.08 ± 0.035 | 1.06 ± 0.019 | 0.492 ± 0.033 | 0.512 ± 0.016 | 0.31 ± 0.0074 | 0.288 ± 0.0079 |
| SG32 HEADNECK | 0.715 ± 0.068 | 0.614 ± 0.17 | 0.907 ± 0.12 | 0.429 ± 0.12 | 0.707 ± 0.11 | 0.487 ± 0.065 | 0.447 ± 0.082 | 0.289 ± 0.078 | 1.35 ± 0.39 | 1.17 ± 0.21 | 1.08 ± 0.18 | 1.29 ± 0.14 | 0.257 ± 0.035 | 0.14 ± 0.011 | 0.0353 ± 0.0084 | 0.0353 ± 0.004 |
| HS578T BREAST | 0.81 ± 0.081 | 0.76 ± 0.082 | 0.841 ± 0.024 | 0.899 ± 0.077 | 1.13 ± 0.1 | 0.987 ± 0.19 | 0.681 ± 0.061 | 0.668 ± 0.13 | 1.07 ± 0.13 | 0.93 ± 0.099 | 0.871 ± 0.056 | 0.992 ± 0.22 | 0.387 ± 0.044 | 0.466 ± 0.021 | 0.298 ± 0.037 | 0.245 ± 0.029 |
| A549 LUNG | 0.906 ± 0.026 | 0.906 ± 0.023 | 0.908 ± 0.021 | 0.906 ± 0.013 | 0.87 ± 0.022 | 0.666 ± 0.035 | 0.416 ± 0.001 | 0.308 ± 0.034 | 1 ± 0.046 | 1.01 ± 0.053 | 1.01 ± 0.043 | 0.99 ± 0.045 | 0.895 ± 0.057 | 0.349 ± 0.046 | 0.0613 ± 0.0031 | 0.058 ± 0.0095 |
| SUM159 BREAST | 0.954 ± 0.016 | 0.942 ± 0.01 | 0.947 ± 0.028 | 0.9227 ± 0.0074 | 0.935 ± 0.018 | 0.851 ± 0.018 | 0.42 ± 0.0061 | 0.34 ± 0.021 | 1.11 ± 0.11 | 1.13 ± 0.098 | 1.16 ± 0.17 | 1.15 ± 0.17 | 0.6 ± 0.084 | 0.316 ± 0.015 | 0.064 ± 0.0036 | 0.0623 ± 0.0015 |
| RDES SOFT TISSUE | 0.706 ± 0.16 | 0.765 ± 0.047 | 0.717 ± 0.13 | 0.629 ± 0.12 | 0.919 ± 0.073 | 0.984 ± 0.034 | 0.779 ± 0.15 | 0.117 ± 0.052 | 1.13 ± 0.087 | 1.28 ± 0.15 | 1.07 ± 0.039 | 1.14 ± 0.19 | 0.459 ± 0.056 | 0.367 ± 0.053 | 0.056 ± 0.0095 | 0.0543 ± 0.0085 |
| 143B BONE | 1.03 ± 0.067 | 1.05 ± 0.029 | 1.08 ± 0.069 | 1.06 ± 0.03 | 1.08 ± 0.047 | 1.12 ± 0.098 | 1.05 ± 0.079 | 0.942 ± 0.05 | 1 ± 0.056 | 0.985 ± 0.0099 | 1.02 ± 0.037 | 0.996 ± 0.0057 | 0.365 ± 0.016 | 0.149 ± 0.0028 | 0.087 ± 0.0071 | 0.091 ± 0.011 |
